According to patent US12662491B2 (Redona Therapeutics, Inc., priority 2020, dated 2026):

Target: T1, Zcchc11 enzyme (Homo sapiens, UniProt Q5TAX3)
T1 construct: made in house; host or cells: HEK293 cells (Zcchc11); E. coli Rosetta II (LIN28A)
T1 sequence (Q5TAX3 212-1420): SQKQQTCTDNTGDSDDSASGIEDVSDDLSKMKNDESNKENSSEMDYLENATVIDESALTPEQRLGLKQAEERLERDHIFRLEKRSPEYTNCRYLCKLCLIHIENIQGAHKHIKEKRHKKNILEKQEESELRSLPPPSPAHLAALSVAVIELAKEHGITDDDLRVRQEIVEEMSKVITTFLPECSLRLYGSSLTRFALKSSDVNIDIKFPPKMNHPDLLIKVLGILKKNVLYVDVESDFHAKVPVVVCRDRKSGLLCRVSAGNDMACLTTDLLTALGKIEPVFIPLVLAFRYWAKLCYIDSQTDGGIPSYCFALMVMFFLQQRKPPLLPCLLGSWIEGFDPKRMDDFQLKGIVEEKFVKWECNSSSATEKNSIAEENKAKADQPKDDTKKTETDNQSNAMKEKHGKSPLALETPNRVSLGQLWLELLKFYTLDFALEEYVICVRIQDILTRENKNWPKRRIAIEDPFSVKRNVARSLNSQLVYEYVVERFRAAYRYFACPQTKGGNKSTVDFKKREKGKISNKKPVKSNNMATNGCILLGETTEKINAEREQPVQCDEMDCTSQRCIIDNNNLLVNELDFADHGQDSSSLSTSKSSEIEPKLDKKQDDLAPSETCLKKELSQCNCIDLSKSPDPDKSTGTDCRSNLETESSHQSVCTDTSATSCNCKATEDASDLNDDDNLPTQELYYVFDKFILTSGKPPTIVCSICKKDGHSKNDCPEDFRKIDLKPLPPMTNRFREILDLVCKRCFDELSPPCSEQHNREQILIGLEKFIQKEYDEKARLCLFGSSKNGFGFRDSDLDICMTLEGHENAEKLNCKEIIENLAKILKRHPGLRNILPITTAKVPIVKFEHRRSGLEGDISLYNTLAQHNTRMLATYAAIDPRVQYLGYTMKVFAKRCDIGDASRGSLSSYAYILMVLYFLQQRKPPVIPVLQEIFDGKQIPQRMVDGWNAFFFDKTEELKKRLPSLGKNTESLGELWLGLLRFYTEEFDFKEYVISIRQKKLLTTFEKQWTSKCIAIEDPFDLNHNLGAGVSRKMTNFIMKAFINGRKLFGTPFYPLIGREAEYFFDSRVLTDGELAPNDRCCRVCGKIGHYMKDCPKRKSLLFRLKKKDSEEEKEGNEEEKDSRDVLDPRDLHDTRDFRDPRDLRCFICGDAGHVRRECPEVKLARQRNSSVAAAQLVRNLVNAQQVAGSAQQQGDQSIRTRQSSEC
Assay: TUTase assay (Zcchc11 assay, Lin28a-dependent polyuridylation of pre-let-7)
Type: biochemical
Conditions: Lin28a-dependent Zcchc11 (Z11) TUTase assay; read-out: Potency Lin28a-dep Z11 IC50
Procedure, shortened: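 Readout: time-dependent quench of 5′-fluorescein pre-let-7 (2 nM) as 3′-rhodamine A20 probe anneals to poly(U) tails. Enzyme 0.2 nM Zcchc11 (res. 212-1420), LIN28A 10 nM, UTP 5 uM; pH 7.3 HEPES, 150 mM KCl, 5 mM MgCl2, RT. 4-parameter IC50; 100% = DMSO, 0% = no UTP.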

Cc1cccnc1OC[C@H]1CCCN1c1cc2c(cc1Cl)c(=O)c(C(=O)O)cn2C1(C)CCOCC1 [Example 459, (R)-6-chloro-7-(2-(((3-methylpyridin-2-yl)oxy)methyl)pyrrolidin-1-yl)-1-(4-methyltetra-hydro-2H-pyran-4-yl)-4-oxo-1,4-dihydroquinoline-3-carboxylic acid] and Cc1cccnc1OC[C@H]1CCCN1c1cc2c(cc1Cl)c(=O)c(C(=O)O)cn2C1(C)CC1 [Example 460, (R)-6-chloro-1-(1-methylcyclo-propyl)-7-(2-(((3-methylpyridin-2-yl)oxy)methyl)pyrrolidin-1-yl)-4-oxo-1,4-dihydroquinoline-3-carboxylic acid] cannot be ordered by IC50: 1000 to 10000 nM for the first, at most 1000 nM for the second.

CN1CCC(n2cc(C(=O)O)c(=O)c3cc(Cl)c(N4CCC[C@@H]4COc4ncccc4Cl)cc32)C1 (stereo partly drawn) [Example 461, 6-chloro-7-((R)-2-(((3-chloropyridin-2-yl)oxy)methyl)pyrrolidin-1-yl)-1-(1-methyl-pyrrolidin-3-yl)-4-oxo-1,4-dihydroquinoline-3-carboxylic acid] and CN1CCC(n2cc(C(=O)O)c(=O)c3cc(Cl)c(N4CCC[C@@H]4COc4ncccc4Cl)cc32)CC1 [Example 462, (R)-6-chloro-7-(2-(((3-chloropyridin-2-yl)oxy)methyl)pyrrolidin-1-yl)-1-(1-methyl-piperidin-4-yl)-4-oxo-1,4-dihydro-quinoline-3-carboxylic acid] fall in the same range of IC50: 1000 to 10000 nM for the first, 1000 to 10000 nM for the second.

COCCN1CCC(n2cc(C(=O)O)c(=O)c3cc(Cl)c(N4CCC[C@@H]4COc4ncccc4Cl)cc32)CC1 [Example 463, (R)-6-chloro-7-(2-(((3-chloropyridin-2-yl)oxy)methyl)pyrrolidin-1-yl)-1-(1-(2-methoxy-ethyl)piperidin-4-yl)-4-oxo-1,4-dihydroquinoline-3-carboxylic acid] and COCCN1CC(n2cc(C(=O)O)c(=O)c3cc(Cl)c(N4CCC[C@@H]4COc4ncccc4Cl)cc32)C1 [Example 470, (R)-6-chloro-7-(2-(((3-chloropyridin-2-yl)oxy)methyl)pyrrolidin-1-yl)-1-(1-(2-methoxy-ethyl)azetidin-3-yl)-1-(1-(2-methoxyethyl)azetidin-3-yl)-4-oxo-1,4-dihydroquinoline-3-carboxylic acid] fall in the same range of IC50: 1000 to 10000 nM for the first, 1000 to 10000 nM for the second.

CN(C)C1CN(c2ccc(-n3cc(C(=O)O)c(=O)c4cc(Cl)c(N5C[C@@H](F)C[C@@H]5COc5ncccc5Cl)cc43)cn2)C1 [Example 464, 6-chloro-7-((2R,4S)-2-(((3-chloropyridin-2-yl)oxy)methyl)-4-fluoropyrrolidin-1-yl)-1-(6-(3-(dimethylamino)azetidin-1-yl)pyridin-3-yl)-4-oxo-1,4-dihydroquinoline-3-carboxylic acid] and CN(C)C1CN(c2ccc(-n3cc(C(=O)O)c(=O)c4cc(Cl)c(N5C[C@@H](F)C[C@@H]5COc5ncccc5F)cc43)cn2)C1 [Example 466, 6-chloro-1-(6-(3-(dimethylamino)azetidin-1-yl)pyridin-3-yl)-7-((2R,4S)-4-fluoro-2-(((3-fluoropyridin-2-yl)oxy)methyl)pyrrolidin-1-yl)-4-oxo-1,4-dihydroquinoline-3-carboxylic acid] cannot be ordered by IC50: at most 1000 nM for the first, at most 1000 nM for the second.

CN(C)C1CN(c2ccc(-n3cc(C(=O)O)c(=O)c4cc(F)c(N5C[C@@H](F)C[C@@H]5COc5ncccc5F)cc43)cn2)C1 [Example 465, 1-(6-(3-(dimethylamino)azetidin-1-yl)pyridin-3-yl)-6-fluoro-7-((2R,4S)-4-fluoro-2-(((3-fluoropyridin-2-yl)oxy)methyl)pyrrolidin-1-yl)-4-oxo-1,4-dihydroquinoline-3-carboxylic acid] and Cc1cc2c(=O)c(C(=O)O)cn(-c3ccc(N4CC(N(C)C)C4)nc3)c2cc1N1C[C@@H](F)C[C@@H]1COc1ncccc1Cl [Example 467, 7-((2R,4S)-2-(((3-chloropyridin-2-yl)oxy)methyl)-4-fluoropyrrolidin-1-yl)-1-(6-(3-(dimethylamino)azetidin-1-yl)pyridin-3-yl)-6-methyl-4-oxo-1,4-dihydroquinoline-3-carboxylic acid] cannot be ordered by IC50: at most 1000 nM for the first, at most 1000 nM for the second.

First: O=C(O)c1cn(-c2cnccn2)c2cc(N3C[C@@H](F)C[C@H]3COc3ncccc3Cl)c(Cl)cc2c1=O [Example 468, 6-chloro-7-[(2S,4S)-2-{[(3-chloropyridin-2-yl)oxy]methyl}-4-fluoropyrrolidin-1-yl]-4-oxo-1-(pyrazin-2-yl)-1,4-dihydroquinoline-3-carboxylic acid]
Second: O=C(O)c1cn(-c2cc3cn[nH]c3cn2)c2cc(N3CCC[C@@H]3COc3ncccc3Cl)c(Cl)cc2c1=O [Example 474, (R)-6-chloro-7-(2-(((3-chloropyridin-2-yl)oxy)methyl)pyrrolidin-1-yl)-4-oxo-1-(1H-pyrazolo[3,4-c]pyridin-5-yl)-1,4-dihydroquinoline-3-carboxylic acid]
The IC50 of the first is higher: 10000 to 50000 nM for the first, at most 1000 nM for the second. The second is the more potent here.

O=C(O)c1cn(C2CCc3nccn3C2)c2cc(N3CCC[C@@H]3COc3ncccc3Cl)c(Cl)cc2c1=O (stereo partly drawn) [Example 469, 6-chloro-7-((R)-2-(((3-chloropyridin-2-yl)oxy)methyl)pyrrolidin-1-yl)-4-oxo-1-(5,6,7,8-tetrahydroimidazo [1,2-a]pyridin-6-yl)-1,4-dihydroquinoline-3-carboxylic acid] and NC1CC(n2cc(C(=O)O)c(=O)c3cc(Cl)c(N4CCC[C@@H]4COc4ncccc4Cl)cc32)C1 (stereo partly drawn) [Example 471, (R)-1-(3-aminocyclobutyl)-6-chloro-7-(2-(((3-chloropyridin-2-yl)oxy)methyl)pyrrolidin-1-yl)-4-oxo-1,4-dihydroquinoline-3-carboxylic acid] cannot be ordered by IC50: at most 1000 nM for the first, 1000 to 10000 nM for the second.

O=C(O)c1cn(-c2ccc(NS(=O)(=O)C3CC3)cc2)c2cc(N3CCC[C@@H]3COc3ncccc3Cl)c(Cl)cc2c1=O [Example 472, 6-chloro-7-[(2R)-2-{[(3-chloropyridin-2-yl)oxy)methyl}pyrrolidin-1-yl]-1-(4-cyclopropane-sulfonamido-phenyl)-4-oxo-1,4-dihydroquinoline-3-carboxylic acid] and Nc1cc(-n2cc(C(=O)O)c(=O)c3cc(Cl)c(N4CCC[C@@H]4COc4ncccc4Cl)cc32)ccn1 [Example 473, (R)-1-(2-aminopyridin-4-yl)-6-chloro-7-(2-(((3-chloropyridin-2-yl)oxy)methyl)pyrrolidin-1-yl)-4-oxo-1,4-dihydroquinoline-3-carboxylic acid] cannot be ordered by IC50: at most 1000 nM for the first, at most 1000 nM for the second.

O=C(O)c1cn(-c2cnc3[nH]ncc3c2)c2cc(N3CCC[C@@H]3COc3ncccc3Cl)c(Cl)cc2c1=O [Example 475, (R)-6-chloro-7-(2-(((3-chloropyridin-2-yl)oxy)methyl)pyrrolidin-1-yl)-4-oxo-1-(1H-pyrazolo[3,4-b]pyridin-5-yl)-1,4-dihydroquinoline-3-carboxylic acid] and CN(C)C1CN(c2ccc(-n3cc(C(=O)O)c(=O)c4cc(Cl)c(N5CCC[C@@H]5COc5ncccc5Cl)cc43)cn2)C1 [Example 476, (R)-6-chloro-7-(2-(((3-chloropyridin-2-yl)oxy)methyl)pyrrolidin-1-yl)-1-(6-(3-(dimethyl-amino)azetidin-1-yl)pyridin-3-yl)-4-oxo-1,4-dihydroquinoline-3-carboxylic acid] cannot be ordered by IC50: at most 1000 nM for the first, at most 1000 nM for the second.
